Results as given in the supplement of paper PMC11061612.

Key:
Experiment in all cases: combination Emax (second highest fraction inhibited in the dose matrix, 72 h); higher = more inhibition; extreme values may be limits of the assay
[1] = system: OCUB-M (Breast Carcinoma)
How it was run: (§1)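 Cell lines in DMEM/F12 or RPMI with 10% FBS were plated in 1536-well plates, held 24 hours at 37°C, 5% CO2, then given two-drug dose matrices for 72 hours (DMSO typically 0.2%). Viability was read by CellTiter-Glo 2.0 luminescence and scaled as inhibition from 0 (vehicle wells) to 1 (blank wells). Combination Emax is the second-highest inhibition in the matrix; Bliss excess is observed combination effect minus expected EA + EB − EA·EB, EA and EB being single-agent effects.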

[2] = system: NCI-H322M (Lung Adenocarcinoma)
How it was run: as §1

A704 (Kidney Carcinoma) = system: A704 (Kidney Carcinoma)
How it was run: as §1

[3] = system: HSC-2 (Oral Cavity Carcinoma)
How it was run: as §1

RPMI-7951 (Melanoma) = system: RPMI-7951 (Melanoma)
How it was run: as §1

[4] = system: KINGS-1 (Low Grade Glioma)
How it was run: as §1

[5] = system: HuP-T3 (Pancreatic Carcinoma)
How it was run: as §1

[6] = system: VMRC-LCD (Lung Adenocarcinoma)
How it was run: as §1

BT-20 (Breast Carcinoma) = system: BT-20 (Breast Carcinoma)
How it was run: as §1

[7] = system: TGBC11TKB (Gastric Carcinoma)
How it was run: as §1

GOTO (Neuroblastoma) = system: GOTO (Neuroblastoma)
How it was run: as §1

NB7 (Neuroblastoma) = system: NB7 (Neuroblastoma)
How it was run: as §1

[8] = system: HC-1 (Other Blood Carcinomas)
How it was run: as §1

[9] = system: KU-19-19 (Bladder Carcinoma)
How it was run: as §1

[10] = system: PF-382 (T-Lymphoblastic Leukemia)
How it was run: as §1

[11] = system: LOU-NH91 (Squamous Cell Lung Carcinoma)
How it was run: as §1

[12] = system: KLE (Endometrial Carcinoma)
How it was run: as §1

[13] = system: EBC-1 (Squamous Cell Lung Carcinoma)
How it was run: as §1

U-87-MG (Glioblastoma) = system: U-87-MG (Glioblastoma)
How it was run: as §1

NH-12 (Neuroblastoma) = system: NH-12 (Neuroblastoma)
How it was run: as §1

**Q.** With Cc1c2c(nn1C)CSCc1cc(n(C)n1)CSc1cc(c3ccccc3c1)OCCCc1c(C(=O)O)n(C)c3c-2c(Cl)ccc13 [AZD5991] + CCN(CCO)CCCOc1ccc2c(Nc3cc(CC(=O)Nc4cccc(F)c4)[nH]n3)ncnc2c1 [AZD2811] (first compound max 1 µM, 7x7, partner max 1 µM) as the compound, how does the “combination Emax” value [1] read?
**A.** 1

**Q.** And the “combination Emax” value [2]?
**A.** 0.188

**Q.** And the “combination Emax” value (A704 (Kidney Carcinoma))?
**A.** 0.177

**Q.** What about the “combination Emax” value [3] of the same compound?
**A.** 0.968

**Q.** And the “combination Emax” value (RPMI-7951 (Melanoma))?
**A.** 0.974

**Q.** What about the “combination Emax” value [4] of the same compound?
**A.** 0.242

**Q.** And the “combination Emax” value [5]?
**A.** 0.241

**Q.** What about the “combination Emax” value [6] of the same compound?
**A.** 0.613

**Q.** What about the “combination Emax” value (BT-20 (Breast Carcinoma)) of the same compound?
**A.** 0.787

**Q.** And the “combination Emax” value [7]?
**A.** 0.582

**Q.** What about the “combination Emax” value (GOTO (Neuroblastoma)) of the same compound?
**A.** 0.709

**Q.** What about the “combination Emax” value (NB7 (Neuroblastoma)) of the same compound?
**A.** 0.872

**Q.** What about the “combination Emax” value [8] of the same compound?
**A.** 0.737

**Q.** What about the “combination Emax” value [9] of the same compound?
**A.** 0.508

**Q.** What about the “combination Emax” value [10] of the same compound?
**A.** 0.923

**Q.** What about the “combination Emax” value [11] of the same compound?
**A.** 0.612

**Q.** What about the “combination Emax” value [12] of the same compound?
**A.** 0.267

**Q.** And the “combination Emax” value [13]?
**A.** 0.243

**Q.** What about the “combination Emax” value (U-87-MG (Glioblastoma)) of the same compound?
**A.** 0.326

**Q.** And the “combination Emax” value (NH-12 (Neuroblastoma))?
**A.** 0.752

**Q.** Cc1c2c(nn1C)CSCc1cc(n(C)n1)CSc1cc(c3ccccc3c1)OCCCc1c(C(=O)O)n(C)c3c-2c(Cl)ccc13 [AZD5991] + CC1(C)CCC(CN2CCN(c3ccc(C(=O)NS(=O)(=O)c4ccc(NCC5CCOCC5)c([N+](=O)[O-])c4)c(Oc4cnc5[nH]ccc5c4)c3)CC2)=C(c2ccc(Cl)cc2)C1 [Venetoclax] (first compound max 1 µM, 7x7, partner max 1 µM) was tested. Which “combination Emax” value [1] did it give?
**A.** 0.996

**Q.** And the “combination Emax” value [2]?
**A.** 0.155

**Q.** What about the “combination Emax” value (A704 (Kidney Carcinoma)) of the same compound?
**A.** 0.344

**Q.** What about the “combination Emax” value [3] of the same compound?
**A.** 0.965

**Q.** What about the “combination Emax” value (RPMI-7951 (Melanoma)) of the same compound?
**A.** 0.903

**Q.** And the “combination Emax” value [4]?
**A.** 0.266

**Q.** And the “combination Emax” value [5]?
**A.** 0.128

**Q.** What about the “combination Emax” value [6] of the same compound?
**A.** 0.164

**Q.** What about the “combination Emax” value (BT-20 (Breast Carcinoma)) of the same compound?
**A.** 0.889

**Q.** And the “combination Emax” value [7]?
**A.** 0.792

**Q.** What about the “combination Emax” value (GOTO (Neuroblastoma)) of the same compound?
**A.** 0.795

**Q.** And the “combination Emax” value (NB7 (Neuroblastoma))?
**A.** 0.513

**Q.** What about the “combination Emax” value [8] of the same compound?
**A.** 0.762

**Q.** And the “combination Emax” value [9]?
**A.** 0.588

**Q.** What about the “combination Emax” value [10] of the same compound?
**A.** 0.337

**Q.** What about the “combination Emax” value [11] of the same compound?
**A.** 0.221

**Q.** And the “combination Emax” value [12]?
**A.** 0.156

**Q.** What about the “combination Emax” value [13] of the same compound?
**A.** 0.199

**Q.** And the “combination Emax” value (U-87-MG (Glioblastoma))?
**A.** 0.174

**Q.** And the “combination Emax” value (NH-12 (Neuroblastoma))?
**A.** 0.892

**Q.** For COc1nnc2ccc(N3CCC(c4ccc(OCCN5CCN(C)C(=O)[C@H]5C)cc4)CC3)nn12 [AZD5153] + C[C@@H]1COCCN1C2=NC(=NC(=C2)C3(CC3)[S@](=N)(=O)C)C4=C5C=CNC5=NC=C4 [AZD6738] (first compound max 1 µM, 7x7, partner max 10 µM), which “combination Emax” value [1] is on record?
**A.** 0.735

**Q.** What about the “combination Emax” value [2] of the same compound?
**A.** 0.865

**Q.** And the “combination Emax” value (A704 (Kidney Carcinoma))?
**A.** 0.681

**Q.** What about the “combination Emax” value [3] of the same compound?
**A.** 0.79

**Q.** What about the “combination Emax” value (RPMI-7951 (Melanoma)) of the same compound?
**A.** 0.925

**Q.** What about the “combination Emax” value [4] of the same compound?
**A.** 0.281

**Q.** What about the “combination Emax” value [5] of the same compound?
**A.** 0.705

**Q.** What about the “combination Emax” value [6] of the same compound?
**A.** 0.921

**Q.** And the “combination Emax” value (BT-20 (Breast Carcinoma))?
**A.** 0.399

**Q.** What about the “combination Emax” value [7] of the same compound?
**A.** 0.801

**Q.** And the “combination Emax” value (GOTO (Neuroblastoma))?
**A.** 0.979

**Q.** And the “combination Emax” value (NB7 (Neuroblastoma))?
**A.** 0.589

**Q.** And the “combination Emax” value [8]?
**A.** 0.713

**Q.** And the “combination Emax” value [9]?
**A.** 0.685

**Q.** What about the “combination Emax” value [10] of the same compound?
**A.** 1

**Q.** And the “combination Emax” value [11]?
**A.** 0.871

**Q.** What about the “combination Emax” value [12] of the same compound?
**A.** 0.737

**Q.** What about the “combination Emax” value [13] of the same compound?
**A.** 0.798

**Q.** What about the “combination Emax” value (U-87-MG (Glioblastoma)) of the same compound?
**A.** 0.698

**Q.** What about the “combination Emax” value (NH-12 (Neuroblastoma)) of the same compound?
**A.** 0.938

**Q.** Which results are given for Cc1c2c(nn1C)CSCc1cc(n(C)n1)CSc1cc(c3ccccc3c1)OCCCc1c(C(=O)O)n(C)c3c-2c(Cl)ccc13 [AZD5991] + C[C@@H](Nc1cc(F)cc(F)c1)c1cc(C(=O)N(C)C)cc2c(=O)cc(N3CCOCC3)oc12 [AZD8186] (first compound max 1 µM, 7x7, partner max 3 µM)?
**A.** combination Emax [1]: 0.986; combination Emax [2]: 0.414; combination Emax (A704 (Kidney Carcinoma)): 0.496; combination Emax [3]: 0.963; combination Emax (RPMI-7951 (Melanoma)): 0.939; combination Emax [4]: 0.366; combination Emax [5]: 0.288; combination Emax [6]: 0.196; combination Emax (BT-20 (Breast Carcinoma)): 0.614; combination Emax [7]: 0.548; combination Emax (GOTO (Neuroblastoma)): 0.654; combination Emax (NB7 (Neuroblastoma)): 0.686; combination Emax [8]: 0.534; combination Emax [9]: 0.212; combination Emax [10]: 0.27; combination Emax [11]: 0.371; combination Emax [12]: 0.493; combination Emax [13]: 0.307; combination Emax (U-87-MG (Glioblastoma)): 0.45; combination Emax (NH-12 (Neuroblastoma)): 0.313

**Q.** For CN(C)CCCOc1ccc(-c2ccc3ncc4c(c3c2)n(C2CCOCC2)c(=O)n4C)cn1 [AZD0156] + O=C(c1cc(Cc2n[nH]c(=O)c3ccccc23)ccc1F)N1CCN(C(=O)C2CC2)CC1 [Olaparib] (first compound max 3 µM, partner max 3 µM), which “combination Emax” value [1] is on record?
**A.** 0.273

**Q.** What about the “combination Emax” value [2] of the same compound?
**A.** 0.357

**Q.** And the “combination Emax” value (A704 (Kidney Carcinoma))?
**A.** 0.247

**Q.** What about the “combination Emax” value [3] of the same compound?
**A.** 0.386

**Q.** And the “combination Emax” value (RPMI-7951 (Melanoma))?
**A.** 0.264

**Q.** And the “combination Emax” value [4]?
**A.** 0.176

**Q.** And the “combination Emax” value [5]?
**A.** 0.223

**Q.** And the “combination Emax” value [6]?
**A.** 0.0443

**Q.** What about the “combination Emax” value (BT-20 (Breast Carcinoma)) of the same compound?
**A.** 0.157

**Q.** What about the “combination Emax” value [7] of the same compound?
**A.** 0.131

**Q.** What about the “combination Emax” value (GOTO (Neuroblastoma)) of the same compound?
**A.** 0.306

**Q.** What about the “combination Emax” value (NB7 (Neuroblastoma)) of the same compound?
**A.** 0.297

**Q.** And the “combination Emax” value [8]?
**A.** 0.527

**Q.** And the “combination Emax” value [9]?
**A.** 0.221

**Q.** And the “combination Emax” value [10]?
**A.** 0.38

**Q.** And the “combination Emax” value [11]?
**A.** 0.209

**Q.** And the “combination Emax” value [12]?
**A.** 0.334

**Q.** And the “combination Emax” value [13]?
**A.** 0.267

**Q.** And the “combination Emax” value (U-87-MG (Glioblastoma))?
**A.** 0.297

**Q.** And the “combination Emax” value (NH-12 (Neuroblastoma))?
**A.** 0.177

**Q.** What does the source list for CN(CCO)CC[C@H](CSc1ccccc1)Nc1ccc(S(=O)(=O)NC(=O)c2ccc(N3CCC([C@@H](O)c4ccccc4-c4ccc(Cl)cc4)CC3)cc2)cc1S(=O)(=O)C(F)(F)F [AZD4320] + CCN(CCO)CCCOc1ccc2c(Nc3cc(CC(=O)Nc4cccc(F)c4)[nH]n3)ncnc2c1 [AZD2811] (first compound max 1 µM, 7x7, partner max 1 µM)?
**A.** combination Emax [1]: 0.874; combination Emax [2]: 0.0611; combination Emax (A704 (Kidney Carcinoma)): 0.563; combination Emax [3]: 0.827; combination Emax (RPMI-7951 (Melanoma)): 0.647; combination Emax [4]: 0.498; combination Emax [5]: 0.128; combination Emax [6]: 0.582; combination Emax (BT-20 (Breast Carcinoma)): 0.653; combination Emax [7]: 0.439; combination Emax (GOTO (Neuroblastoma)): 0.649; combination Emax (NB7 (Neuroblastoma)): 0.267; combination Emax [8]: 0.969; combination Emax [9]: 0.498; combination Emax [10]: 1; combination Emax [11]: 0.877; combination Emax [12]: 0.297; combination Emax [13]: 0.931; combination Emax (U-87-MG (Glioblastoma)): 0.253; combination Emax (NH-12 (Neuroblastoma)): 0.962
